According to patent US20160177395A1, “BIOMARKERS FOR THE PREDICTION OF RENAL INJURY” (priority 2007, published 2016):
Values joined by “and” are separate entries in the source; they are usually repeats but may differ in a detail not shown here. Equal values may be shown once. “Also recorded” adds a separate entry of the source.

Tests used:
[1] = system: kidney tissues of treated or untreated rats; experiment: Real-time qRT-PCR of signature amplicons, validation stage, labeled and un-labeled samples (Table 23); settings: for H31883_DB71_seg13 normalized qRT-PCR result / MUSCYCG1R_DB81_seg19-20 normalized qRT-PCR result / W41270_DB81_seg11 normalized qRT-PCR result: un-labeled sample, one line per animal; for AI045075_DB71_seg6 normalized qRT-PCR expression (Interferon stimulated exonuclease 20 (ISG20) transcript) / H31883_DB71_seg13 normalized qRT-PCR expression (Cyclin-G1 (CCNG1) transcript) / MUSCYCG1R_DB81_seg19-20 normalized qRT-PCR expression / W41270_DB81_seg11 normalized qRT-PCR expression (tumor necrosis factor receptor superfamily, member 12a transcript) / W64472_DB81_seg2 normalized qRT-PCR expression (Interferon stimulated exonuclease 20 (ISG20) transcript) / W83813_DB81_seg27 normalized qRT-PCR expression: un-labeled samples, kidney of individual male/female rats
Source text: New primers were designed for part of the transcripts, and new conditions for several qRT-PCR reactions were used, as described below.
The measurements were normalized in two steps. First—according to the house-keeping-genes normalization factor, and second—each plate was normalized according to ratio of the intensity measurements from samples appearing in it and in the shuffled (normalization) plate (Table 25 provides the plates details and the section “Inter-Plate Normalization” provides details of the normalization process). The normalized values were further scaled by a factor, for ease of viewing.
RT was prepared and qRT-PCR performed and analyzed as described hereinabove. qRT-PCR was performed for the four genes comprising the signature of the discovery stage described in Table 13. Two amplicons were tested for each gene—one representing the wild-type transcript, and another representing an alternative splice variant. Each amplicon was measured using the labeled samples described in Table 9 herein, as well as the un-labeled samples. Samples from both groups (labeled and un-labeled) were tested in seven 96 well plates as described in Table 25. In order to correct possible run to run variations, the following controls were added: 1. several samples were repeated in all 96 wells plates; 2. control shuffled plate was designed which combined samples from all seven test plates.
To account for possible differences of qRT-PCR measurements between the different plates due to experimental artifacts, a normalization plate was planned. This plate, designated hereinabove ‘shuffled plate’, contained samples from all other plates. Real Time PCR was performed on this plate using the primers appropriate for all candidates in tables 26 and 27. For each other plate (plates 1-7 above) and each amplicon, the samples appearing also in the shuffled plate were examined—the ratio between the transcript abundance as measured in the plate to the abundance as measured in the shuffled plate was calculated, outliers were manually removed, and the geometric mean of the left ratios was taken as an additional multiplicative normalization factor for the plate and amplicon.

kidney = experiment: Renal histopathology of rats treated with T1, T2, T3; type: in vivo, rat
Method: Each group consisted of 6 male and 6 female rats. The additional groups consisted of 6 males and 6 female rats treated with control compound for a single day and for five days, as described in Table 24.
T2 “no observed effect level” (NOEL, i.e., the maximal dose at which no toxic effect is visible) is 15 mg/kg.
At autopsy, both kidneys of each animal were removed and each kidney was cross sectioned. Half of each kidney was sent to RNA extraction and analysis.

rat kidney samples = experiment: Random-Forest classifiers applied to un-labeled samples of T1, T2, T3 and control (Table 30); settings: for Average 'Toxic' (%): average of the two classifiers
Method: To validate the optimal signature for classification of renal toxicity of a compound after five days of application a test of the signatory polynucleotide/gene expression in rat kidney samples consisting of tissues from rats exposed to three drug compounds and a single control group was carried out (Teva Pharmaceutical Industries, IL).
The two optimal classifiers (signatures described in Tables 26 and 27) were applied to the qRT-PCR reads of the un-labeled samples and their calls was used to assign a level of toxicity to each group and, eventually, each compound.
The classifiers described in Tables 26 and 27, were used for testing the un-labeled samples. Both classifiers were applied to the measurements of each sample, used the 30% bound from above, and the number of samples pass that bound in each group were summarized.

[2] = Ds1, Day1, oral gavage, female rat kidney
[3] = Ds1, Day1, oral gavage, male rat kidney
[4] = Ds1, Day5, oral gavage, female rat kidney
[5] = Ds1, Day5, oral gavage, male rat kidney
[6] = Ds2, Day1, oral gavage, female rat kidney
[7] = Ds2, Day1, oral gavage, male rat kidney
[8] = Ds2, Day5, oral gavage, female rat kidney
[9] = Ds2, Day5, oral gavage, male rat kidney

CN(C)c1cccc2c1CCC2Nc1cc(=O)[nH]c(=O)[nH]1.Cl (stereo not shown) [T2]
H31883_DB71_seg13 normalized qRT-PCR result [1, 2]: 0.183 and 0.213 and 0.29 and 0.387 | MUSCYCG1R_DB81_seg19-20 normalized qRT-PCR result [1, 2]: 0.54 and 0.419 and 0.836 and 0.49 | W41270_DB81_seg11 normalized qRT-PCR result [1, 2]: 0.492 and 0.468 and 1.072 and 0.969 | H31883_DB71_seg13 normalized qRT-PCR result [1, 3]: 0.955 and 0.798 and 0.931 and 1.182 | MUSCYCG1R_DB81_seg19-20 normalized qRT-PCR result [1, 3]: 0.98 and 0.709 and 1.059 and 1.253 | W41270_DB81_seg11 normalized qRT-PCR result [1, 3]: 0.801 and 0.791 and 1.076 and 1.477 | H31883_DB71_seg13 normalized qRT-PCR result [1, 4]: 0.865 and 0.922 and 0.961 and 0.824 and 1.303 | MUSCYCG1R_DB81_seg19-20 normalized qRT-PCR result [1, 4]: 0.771 and 1.02 and 1.923 and 1.232 and 0.94 | W41270_DB81_seg11 normalized qRT-PCR result [1, 4]: 0.464 and 0.532 and 0.616 and 0.572 and 0.773 | H31883_DB71_seg13 normalized qRT-PCR result [1, 5]: 0.11 and 0.209 and 0.27 and 0.299 | MUSCYCG1R_DB81_seg19-20 normalized qRT-PCR result [1, 5]: 1.566 and 1.449 and 1.516 and 1.237 | W41270_DB81_seg11 normalized qRT-PCR result [1, 5]: 1.445 and 1.42 and 1.258 and 1.447 | H31883_DB71_seg13 normalized qRT-PCR result [1, 6]: 0.289 and 0.365 and 0.32 and 0.444 and 0.254 | MUSCYCG1R_DB81_seg19-20 normalized qRT-PCR result [1, 6]: 2.008 and 0.857 and 3.044 and 2.152 and 0.71 | W41270_DB81_seg11 normalized qRT-PCR result [1, 6]: 1.104 and 0.741 and 1.73 and 1.211 and 0.666 | H31883_DB71_seg13 normalized qRT-PCR result [1, 7]: 0.773 and 0.595 and 0.741 and 0.777 and 0.725 and 0.614 | MUSCYCG1R_DB81_seg19-20 normalized qRT-PCR result [1, 7]: 1.006 and 0.729 and 0.541 and 1.015 and 0.588 and 0.471 | W41270_DB81_seg11 normalized qRT-PCR result [1, 7]: 1.462 and 0.692 and 0.656 and 1.23 and 0.866 and 0.837 | H31883_DB71_seg13 normalized qRT-PCR result [1, 8]: 0.269 and 0.354 | MUSCYCG1R_DB81_seg19-20 normalized qRT-PCR result [1, 8]: 0.799 and 3.003 | W41270_DB81_seg11 normalized qRT-PCR result [1, 8]: 0.554 and 1.029 | H31883_DB71_seg13 normalized qRT-PCR result [1, 9]: 0.615 and 1.022 and 0.962 and 0.626 | MUSCYCG1R_DB81_seg19-20 normalized qRT-PCR result [1, 9]: 1.338 and 0.831 and 0.83 and 0.878 | W41270_DB81_seg11 normalized qRT-PCR result [1, 9]: 0.899 and 1.446 and 0.623 and 1.049 | AI045075_DB71_seg6 normalized qRT-PCR expression (Interferon stimulated exonuclease 20 (ISG20) transcript) ([1]; dose Ds1, Day1, oral gavage): 1.308 and 0.744 and 1.159 | H31883_DB71_seg13 normalized qRT-PCR expression (Cyclin-G1 (CCNG1) transcript) ([1]; dose Ds1, Day1, oral gavage): 0.88 and 0.67 and 0.613 and 0.695 and 0.464 and 0.951 and 0.536 and 0.646 and 0.629 and 0.7 (2×) | MUSCYCG1R_DB81_seg19-20 normalized qRT-PCR expression ([1]; dose Ds1, Day1, oral gavage): 0.938 and 0.555 and 0.115 and 0.859 and 0.124 and 0.888 and 0.267 and 0.157 and 0.47 and 0.126 and 0.51 | W41270_DB81_seg11 normalized qRT-PCR expression (tumor necrosis factor receptor superfamily, member 12a transcript) ([1]; dose Ds1, Day1, oral gavage): 0.481 and 0.662 and 0.473 and 0.76 and 0.474 and 0.876 and 0.959 and 0.518 and 0.823 and 3.38 and 0.623 | W64472_DB81_seg2 normalized qRT-PCR expression (Interferon stimulated exonuclease 20 (ISG20) transcript) ([1]; dose Ds1, Day1, oral gavage): 1.863 and 0.632 and 1.305 | W83813_DB81_seg27 normalized qRT-PCR expression ([1]; dose Ds1, Day1, oral gavage): 0.305 and 0.666 and 0.84 | AI045075_DB71_seg6 normalized qRT-PCR expression (Interferon stimulated exonuclease 20 (ISG20) transcript) ([1]; dose Ds1, Day5, oral gavage): 1.016 and 1.11 | H31883_DB71_seg13 normalized qRT-PCR expression (Cyclin-G1 (CCNG1) transcript) ([1]; dose Ds1, Day5, oral gavage): 1.884 and 1.539 and 1.163 and 1.329 and 1.66 and 1.079 and 0.936 and 0.978 and 1.439 and 1.149 and 2.147 | MUSCYCG1R_DB81_seg19-20 normalized qRT-PCR expression ([1]; dose Ds1, Day5, oral gavage): 0.107 and 0.113 and 1.399 and 1.006 and 0.148 and 0.127 and 0.736 and 1.386 and 1.293 and 0.172 and 0.179 | W41270_DB81_seg11 normalized qRT-PCR expression (tumor necrosis factor receptor superfamily, member 12a transcript) ([1]; dose Ds1, Day5, oral gavage): 0.233 and 0.493 and 0.626 and 1.149 and 0.321 and 0.477 and 0.83 and 1.524 and 1.111 and 0.397 and 0.337 | W64472_DB81_seg2 normalized qRT-PCR expression (Interferon stimulated exonuclease 20 (ISG20) transcript) ([1]; dose Ds1, Day5, oral gavage): 0.929 and 0.996 | W83813_DB81_seg27 normalized qRT-PCR expression ([1]; dose Ds1, Day5, oral gavage): 0.248 and 0.203 | AI045075_DB71_seg6 normalized qRT-PCR expression (Interferon stimulated exonuclease 20 (ISG20) transcript) ([1]; dose Ds2, Day1, oral gavage): 1.43 | H31883_DB71_seg13 normalized qRT-PCR expression (Cyclin-G1 (CCNG1) transcript) ([1]; dose Ds2, Day1, oral gavage): 0.832 and 0.773 and 0.635 and 0.722 and 0.618 and 0.999 and 0.602 and 0.522 and 1.006 and 1.079 and 0.84 and 0.762 | MUSCYCG1R_DB81_seg19-20 normalized qRT-PCR expression ([1]; dose Ds2, Day1, oral gavage): 0.211 and 0.531 and 0.505 and 0.585 and 0.475 and 0.661 and 0.197 and 0.458 and 0.167 and 0.192 and 0.14 and 0.111 | W41270_DB81_seg11 normalized qRT-PCR expression (tumor necrosis factor receptor superfamily, member 12a transcript) ([1]; dose Ds2, Day1, oral gavage): 1.747 and 1.016 and 0.424 and 0.589 and 0.545 and 0.528 and 0.384 and 0.577 and 1.729 and 1.125 and 0.594 and 0.92 | W64472_DB81_seg2 normalized qRT-PCR expression (Interferon stimulated exonuclease 20 (ISG20) transcript) ([1]; dose Ds2, Day1, oral gavage): 0.804 | W83813_DB81_seg27 normalized qRT-PCR expression ([1]; dose Ds2, Day1, oral gavage): 0.201 | AI045075_DB71_seg6 normalized qRT-PCR expression (Interferon stimulated exonuclease 20 (ISG20) transcript) ([1]; dose Ds2, Day5, oral gavage): 0.609 and 1.842 and 0.637 | H31883_DB71_seg13 normalized qRT-PCR expression (Cyclin-G1 (CCNG1) transcript) ([1]; dose Ds2, Day5, oral gavage): 1.386 and 0.676 and 1.01 and 1.128 and 1.161 and 1.146 and 1.057 and 0.942 and 1.256 | MUSCYCG1R_DB81_seg19-20 normalized qRT-PCR expression ([1]; dose Ds2, Day5, oral gavage): 0.345 and 0.169 and 0.513 and 0.148 and 0.185 and 0.997 and 0.746 and 0.686 and 0.655 | W41270_DB81_seg11 normalized qRT-PCR expression (tumor necrosis factor receptor superfamily, member 12a transcript) ([1]; dose Ds2, Day5, oral gavage): 1.186 and 0.308 and 0.497 and 0.711 and 1.237 and 0.857 and 0.788 and 0.457 and 0.668 | W64472_DB81_seg2 normalized qRT-PCR expression (Interferon stimulated exonuclease 20 (ISG20) transcript) ([1]; dose Ds2, Day5, oral gavage): 0.731 and 1.178 and 0.485 | W83813_DB81_seg27 normalized qRT-PCR expression ([1]; dose Ds2, Day5, oral gavage): 0.601 and 0.555 and 0.354 | Kidney histopathology findings (kidney; 50 mg/kg, after 7 days): direct cortical tubular toxicity; also recorded: multifocal, consisting of tubular basophilia, indicating regeneration following necrosis; also recorded: basophilic tubules in the cortex, indicating post-necrotic regeneration | Time after which visible pathological damage was seen (kidney; rats): 7 days | no observed effect level (NOEL) (kidney; rats): 15 mg/kg | Renal damage (kidney; rats, dose and duration as in the value): renal damage after 7 days of treatment at the 50 mg/kg dose | Average 'Toxic' (%) (rat kidney samples; Ds1 Day1 Female): 20% | Average 'Toxic' (%) (rat kidney samples; Ds1 Day1 Male): 25% | Average 'Toxic' (%) (rat kidney samples; Ds1 Day5 Female): 30% | Average 'Toxic' (%) (rat kidney samples; Ds1 Day5 Male): 83% | Average 'Toxic' (%) (rat kidney samples; Ds2 Day1 Female): 58.5% | Average 'Toxic' (%) (rat kidney samples; Ds2 Day1 Male): 0% | Average 'Toxic' (%) (rat kidney samples; Ds2 Day5 Female): 50% | Average 'Toxic' (%) (rat kidney samples; Ds2 Day5 Male): 30% | Toxicity conclusion from classifier calls (rat kidney samples; signatures of Tables 26 and 27, 30% bound): nephrotoxic agents
